test: Stability and protonation constants of Cu(II)-complexes (spectrophotometry, pH-potentiometry); type: physicochemical; details: 0.15 M NaCl, 25 °C
Method: The stability constants of the Cu(II)‐complexes with rac‐L1, ent‐L1, rac‐L2 and ent‐L2 ligands were determined by spectrophotometry studying the Cu(II) – rac‐L1, Cu(II) – ent‐L1, Cu(II) – rac‐L2 and Cu(II) – ent‐L2 systems at the absorption band of Cu(II)‐complexes at [H^+] = 0.01–1.0 M in the wavelength range of 400–800 nm. The concentrations of CuCl2, rac‐L1, ent‐L1, rac‐L2 and ent‐L2 ligands were 0.002 M. The H^+ concentration in the samples was adjusted with the addition of calculated amounts of 3 M HCl. (I = [Na^+]+[H^+] = 0.15, [H^+]≤0.15 M). The samples were kept at 25 °C for a week. The absorbance values of the samples were determined at 11 wavelengths (575, 595, 615, 635, 655, 675, 695, 715, 735, 755, and 775 nm). For the calculations of the stability and protonation constants of the Cu(II)‐complexes, the molar absorptivities of CuCl2 and Cu(II)‐complexes were determined by recording the spectra of 1.0 × 10^−3, 1.5 × 10^−3, 2.0 × 10^−3, and 2.5 × 10^−3 M solutions of CuCl2 and Cu(II)‐complexes in the pH range of 1.7–7.5. The pH was adjusted by stepwise addition of concentrated NaOH or HCl solutions. The spectrophotometric measurements were made with a PerkinElmer Lambda 365 UV–vis spectrophotometer at 25 °C, using 1.0 cm cells.
The stability and protonation constants of Cu(II) complexes with rac-L1, ent-L1, rac-L2 and ent-L2 have been determined by spectrophotometry. The equilibrium reaction (Equation (S8)) has been studied in the [H^+] range of 0.01 – 1.0 M (the ionic strength was constant I=[Na^+]+[H^+]=0.15 in the samples [H^+]≤0.15 M), where the formation of Cu^2+, CuHx-yL and HxL species was assumed ([Cu(rac-L1)]^4- and [Cu(ent-L1)]^4-: x=6 and 7, y=4 and 5; [Cu(rac-L2)]^4- and [Cu(ent-L2)]^4-: x=3 and 4, y=1 and 2).
The protonation constants of Cu(II)-complexes with rac-L1, ent-L1, rac-L2 and ent-L2 have been determined by pH-potentiometric and spectrophotometric titrations of the complexes in the pH range 1.7 – 7.0. These studies reveal that [Cu(rac-L1)]^4- and [Cu(ent-L1)]^4- complexes can form mono-, di-, tri, tetra- and penta-protonated species via the protonation of all distant and two closer carboxylate groups of the pendant arms. Moreover, the pH potentiometric studies also indicate that the [Cu(rac-L2)]^- and [Cu(ent-L2)]^- complexes can form mono- and di-protonated species via the protonation of two carboxylate groups. […] Moreover, the maximum of the absorption band for the [Cu(H5L)]^+ species in Cu^2+ – ent-L1 system is also similar to that of [Cu(H2L)]^+ in Cu^2+ – ent-L2 system ([…], Figures S45 and S47). The maximum of the absorption band is shifted from 730 to 750 nm by the deprotonation of [Cu(H5L)]^+ and [Cu(H2L)]^+ via the formation of [Cu(H4L)] and [Cu(HL)] species in Cu^2+– rac-L1 and Cu^2+– rac-L2 systems (Figures S44 and S46).

logK CuL | logKCuH2L | logKCuH3L | logKCuH4L | logKCuH5L | logKCuHL | Compound
23.22 (6) | 4.72 (2) | 4.11 (2) | 3.36 (2) | 1.31 (2) | 5.25 (2) | O=C(O)CCC(C(=O)O)N1CCN(C(CCC(=O)O)C(=O)O)Cc2cccc(n2)CN(C(CCC(=O)O)C(=O)O)CC1 (stereo not drawn) [ent‐L1]
23.26(4) | 4.80 (2) | 4.28 (2) | 3.69 (2) | 2.33 (2) | 5.38 (3) | O=C(O)CCC(C(=O)O)N1CCN(C(CCC(=O)O)C(=O)O)Cc2cccc(n2)CN(C(CCC(=O)O)C(=O)O)CC1 (racemic) [rac‐L1, 2,2’,2’’-[3,6,9,15-tetraazabicyclo[9.3.1]pentadeca-1(15),11,13-triene-3,6,9-triyl]tripentanedioic acid]
21.52 (4) | 1.44 (1) | – | – | – | 3.27 (1) | O=C(CCC(C(=O)O)N1CCN(C(CCC(=O)NCC(O)CO)C(=O)O)Cc2cccc(n2)CN(C(CCC(=O)NCC(O)CO)C(=O)O)CC1)NCC(O)CO (stereo not drawn) [ent‐L2]
21.04 (5) | 2.58 (5) | – | – | – | 4.42 (4) | O=C(CCC(C(=O)O)N1CCN(C(CCC(=O)NCC(O)CO)C(=O)O)Cc2cccc(n2)CN(C(CCC(=O)NCC(O)CO)C(=O)O)CC1)NCC(O)CO (racemic) [rac‐L2]
